These results are taken from patent US20160025753A1, “ASSAY FOR CANNABINOIDS AND METHODS OF USE THEREOF” (priority 2014, published 2016).

Test [1] has as its target T1, human cannabinoid receptor 1 membrane preparation (Homo sapiens, UniProt P21554).
T1 construct: purchased EMD Millipore
The format is binding.

Test [2] deals with T2, CB1 human recombinant protein (Homo sapiens, UniProt P21554). The test is described as follows: Heterogeneous competitive plate assay, Δ9-THC conjugate coated 96-well plate, anti-CB1 antibody/HRP detection (Example 3).
The target in test [3] is T2, CB1 human recombinant protein. The format is binding. On the set-up: purchased Abnova.
The target of the next test is CB2 receptors (Homo sapiens, UniProt P34972). As to conditions: background statement; cited from earlier work.

Molecules are shown by their SMILES. Several values for one entry are separate records, joined by “and”; a condition that tells them apart may be missing. Identical values can stand only once. Like-named read-outs stand apart in the source and are kept apart here.

T2 sequence (P21554 whole entry): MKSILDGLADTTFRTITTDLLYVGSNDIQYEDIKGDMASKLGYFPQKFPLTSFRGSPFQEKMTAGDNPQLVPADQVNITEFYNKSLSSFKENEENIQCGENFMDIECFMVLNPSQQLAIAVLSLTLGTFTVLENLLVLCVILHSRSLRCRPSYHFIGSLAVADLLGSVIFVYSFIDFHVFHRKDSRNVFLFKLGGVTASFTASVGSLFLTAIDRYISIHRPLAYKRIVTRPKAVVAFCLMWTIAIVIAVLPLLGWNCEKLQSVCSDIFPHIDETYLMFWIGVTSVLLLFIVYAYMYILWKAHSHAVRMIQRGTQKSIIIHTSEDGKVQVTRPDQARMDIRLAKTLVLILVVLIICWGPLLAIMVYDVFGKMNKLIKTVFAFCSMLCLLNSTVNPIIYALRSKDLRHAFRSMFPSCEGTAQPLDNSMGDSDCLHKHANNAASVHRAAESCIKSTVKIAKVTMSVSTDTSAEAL
T1 sequence (P21554 whole entry): as above
Sequence of CB2 receptors (P34972 whole entry): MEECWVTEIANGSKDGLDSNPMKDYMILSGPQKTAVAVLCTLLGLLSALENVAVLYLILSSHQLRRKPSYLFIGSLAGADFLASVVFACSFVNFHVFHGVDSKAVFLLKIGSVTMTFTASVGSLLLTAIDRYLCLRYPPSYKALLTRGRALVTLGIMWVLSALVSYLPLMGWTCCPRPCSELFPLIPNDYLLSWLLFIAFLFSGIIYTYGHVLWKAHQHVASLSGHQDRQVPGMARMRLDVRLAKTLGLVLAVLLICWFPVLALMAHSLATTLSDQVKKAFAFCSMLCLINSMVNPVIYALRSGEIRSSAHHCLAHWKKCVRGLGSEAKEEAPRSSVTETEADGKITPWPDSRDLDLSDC

Regarding `CCCCCCCC(C)(C)c1ccc([C@H]2CCC[C@@H](O)C2)c(O)c1` [Cannabicyclohexanol], the “Relative Fluorescent Units (RFU)” value in test [1] (1 μg/mL sample, excitation 535 nm, emission 610 nm, no cannabinoids 47,934) is given as 20,667 RFU. The “Detection by the assay (in words)” value in test [1] (1 μg/mL solution of each) was “comparable response”.

In the case of `CCCCCCC(C)(C)c1cc(O)c2c(c1)OC(C)(C)[C@@H]1CC=C(CO)C[C@@H]21` [HU-210], in test [1], the “Detection by the assay (in words)” value is recorded as “comparable response” and the “Relative Fluorescent Units (RFU)” value was 21,014 RFU. Moreover, the “Inhibition of absorbance at 450 nm (in words)” value in test [2] (sample containing 100 ng/ml) is reported as “significant inhibition of absorbance”. The “Average Absorbance @ 450 nm” value in test [2] (with 100 ng/mL HU-210, average of 6 replicates, no cannabinoid blank 2.279) is recorded as 1.480. In test [2] (with 100 ng/mL HU-210, single replicates, no cannabinoid blank average 2.279), the “Absorbance @ 450 nm” value was 1.435 and 1.480 and 1.416 and 1.602 and 1.379 and 1.569.

`CCCCCn1cc(C(=O)c2cccc3ccccc23)c2cc(O)ccc21` [JWH-018 5-hydroxyindole metabolite]: in test [3] (100 ng/mL test sample, FIG. 8), the “Signal inhibition (relative absorbance at 450 nm)” value is “showed less signal inhibition”.

For `CCCCCn1cc(C(=O)c2cccc3ccccc23)c2ccccc21` [JWH-018], in test [1], the “Detection by the assay (in words)” value is listed as “comparable response” and the “Relative Fluorescent Units (RFU)” value is listed as 22,299 RFU. The “Signal inhibition (relative absorbance at 450 nm)” value in test [3] is recorded as “demonstrated signal inhibition”.

Turning to `C=C(C)[C@@H]1CCC(C)=C[C@H]1c1c(O)cc(CCCCC)cc1O` [cannabidiol, Cannabidiol], the “Affinity for CB2 receptors” value on CB2 receptors is given as “low affinity”.
